PubChem BioAssay AID328 (DTP/NCI, 2004)
Values joined by “and” are separate entries in the source; they are usually repeats but may differ in a detail not shown here. Identical values can stand only once. Inconclusive results and toxic doses are left out.

Tested on: BDF1 mice, P388 leukemia ip, median survival T/C
Test: NCI In Vivo Anticancer Drug Screen. Data for tumor model P388 Leukemia (intraperitoneal) in B6D2F1 (BDF1) mice
Conditions: endpoint: median survival time, higher = longer survival
In short: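 Mice carrying the transplantable tumour receive compound or vehicle. Survival is followed in each arm, and the treated measure is divided by the vehicle measure.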

[1] = dose: 100.0 mg/kg/injection, schedule: Q04DX003 (ip), vehicle: saline with Tween-80
[2] = dose: 200.0 mg/kg/injection, schedule: Q04DX003 (ip), vehicle: saline with Tween-80
[3] = dose: 50.0 mg/kg/injection, schedule: Q01DX009 (ip), vehicle: saline with Tween-80
[4] = dose: 100.0 mg/kg/injection, schedule: Q01DX009 (ip), vehicle: saline with Tween-80
[5] = dose: 200.0 mg/kg/injection, schedule: Q01DX009 (ip), vehicle: saline with Tween-80
[6] = dose: 400.0 mg/kg/injection, schedule: Q04DX003 (ip), vehicle: saline with Tween-80

SMILES	T/C [1]	T/C [2]	T/C [3]	T/C [4]	T/C [5]	T/C [6]	further results
O=C(O)c1cc2ccccc2c2cc(Br)ccc12	100 % of control	104 % of control					
CCN(CC)CCOC(=O)c1ccccc1Nc1cccc(C)c1							T/C (dose: 25.0 mg/kg/injection, schedule: Q01DX009 (ip), vehicle: saline): 104 % of control; T/C (dose: 25.0 mg/kg/injection, schedule: Q04DX003 (ip), vehicle: saline): 109 % of control; T/C (dose: 50.0 mg/kg/injection, schedule: Q01DX009 (ip), vehicle: saline): 108 % of control; T/C (dose: 50.0 mg/kg/injection, schedule: Q04DX003 (ip), vehicle: saline): 100 % of control; T/C (dose: 87.0 mg/kg/injection, schedule: Q04DX003 (ip), vehicle: saline): 119 % of control; T/C (dose: 100.0 mg/kg/injection, schedule: Q04DX003 (ip), vehicle: saline): 109 % of control; T/C (dose: 175.0 mg/kg/injection, schedule: Q04DX003 (ip), vehicle: saline): 107 % of control
c1ccc2c(c1)nnn2OC1CCCC1			106 % of control	116 % of control	119 % of control		
O=C(c1ccco1)C1Cc2ccccc2C1=O (centres undefined)	91 % of control	104 % of control		116 % of control	104 % of control	108 % of control	T/C (dose: 400.0 mg/kg/injection, schedule: Q01DX009 (ip), vehicle: saline with Tween-80): 100 % of control
O=C(NO)c1cc(O)c(O)c(O)c1							T/C (dose: 50.0 mg/kg/injection, schedule: Q01DX005 (ip), vehicle: distilled water + Tween-80): 123 % of control; T/C (dose: 200.0 mg/kg/injection, schedule: Q01DX005 (ip), vehicle: distilled water + Tween-80): 150 % of control; T/C (dose: 400.0 mg/kg/injection, schedule: Q01DX005 (ip), vehicle: distilled water + Tween-80): 153 % of control
Clc1cc(C(Cl)(Cl)Cl)c(Cl)cc1C(Cl)(Cl)Cl	100 % of control	105 % of control				110 % of control	
CCCCC(C)C(=O)CC(SCC)c1ccccc1 (centres undefined)			103 % of control	114 % of control	105 % of control		
NC(=S)NN1C2CSC1CS2							T/C (dose: 22.5 mg/kg/injection, schedule: Q01DX009 (ip), vehicle: saline with Tween-80): 100 % of control; T/C (dose: 45.0 mg/kg/injection, schedule: Q01DX009 (ip), vehicle: saline with Tween-80): 110 % of control; T/C (dose: 90.0 mg/kg/injection, schedule: Q01DX009 (ip), vehicle: saline with Tween-80): 108 % of control
COc1ccc(N=C/C=C/c2ccccc2)cc1	104 % of control	100 % of control				109 % of control	
COc1cccc(/C=N/NC(=O)C2CCN(C(=S)NC3CC4C=CC3C4)CC2)c1O (centres undefined)			101 % of control				T/C (dose: 1.56 mg/kg/injection, schedule: Q01DX009 (ip), vehicle: saline with Tween-80): 90 % of control; T/C (dose: 3.12 mg/kg/injection, schedule: Q01DX009 (ip), vehicle: saline with Tween-80): 89 % of control; T/C (dose: 6.25 mg/kg/injection, schedule: Q01DX009 (ip), vehicle: saline with Tween-80): 87 % of control and 92 % of control; T/C (dose: 12.5 mg/kg/injection, schedule: Q01DX009 (ip), vehicle: saline with Tween-80): 89 % of control; T/C (dose: 25.0 mg/kg/injection, schedule: Q01DX009 (ip), vehicle: saline with Tween-80): 92 % of control
